# According to US9302999B2, “Substituted triazoles as herbicides” (E. I. DU PONT DE NEMOURS AND COMPANY, priority 2012, dated 2016):
# Key:
# Type in all cases: in vivo
# [1] = test system: foxtail, giant (giant foxtail, Setaria faberii); experiment: Test C pre-/postemergence: foxtail, giant
# Procedure, shortened: (§1)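 Preemergence on seeds in loam/sand, postemergence on 2–18 cm (1–4-leaf) plants in peat-based medium; compounds in non-phytotoxic solvent with surfactant. After 13–15 days in greenhouse, visual rating versus controls, 0 (no effect) to 100 (complete control).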
# [2] = test system: galium (catchweed bedstraw, Galium aparine); experiment: Test C pre-/postemergence: galium
# Procedure, shortened: as §1
# [3] = test system: corn (Zea mays); experiment: Test C pre-/postemergence: corn
# Procedure, shortened: as §1
# [4] = test system: morningglory (Ipomoea coccinea); experiment: Test C pre-/postemergence: morningglory
# Procedure, shortened: as §1
# [5] = test system: johnsongrass (Sorghum halepense); experiment: Test C pre-/postemergence: johnsongrass
# Procedure, shortened: as §1
# [6] = test system: large crabgrass (Digitaria sanguinalis); experiment: Test C pre-/postemergence: large crabgrass
# Procedure, shortened: as §1
# [7] = test system: ryegrass, Italian (Italian ryegrass, Lolium multiflorum); experiment: Test C pre-/postemergence: ryegrass, Italian
# Procedure, shortened: as §1
# [8] = test system: kochia (Kochia scoparia); experiment: Test C pre-/postemergence: kochia; conditions: Postemergence
# Procedure, shortened: as §1
# [9] = test system: wild oat (Avena fatua); experiment: Test C pre-/postemergence: wild oat; conditions: Postemergence
# Procedure, shortened: as §1
# [10] = test system: ducksalad (Heteranthera limosa); experiment: Test B flooded paddy: ducksalad; conditions: Flood, applied to paddy water at 2-leaf stage, visually evaluated after 13 to 15 days
# Procedure, shortened: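 Flooded-pot test: compound dosed into 3 cm of standing water above soil when plants had two leaves. Visual control ratings (0–100) versus untreated plants after 13–15 d.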
# [11] = test system: velvetleaf (Abutilon theophrasti); experiment: Test C pre-/postemergence: velvetleaf
# Procedure, shortened: as §1
# [12] = Postemergence, 16 g ai/ha, scale 0 to 100, 0 no effect, 100 complete control
# [13] = Postemergence, 31 g ai/ha, scale 0 to 100 (0 no effect, 100 complete control)
# [14] = Postemergence, 125 g ai/ha, scale 0 to 100, 0 no effect, 100 complete control
# [15] = Preemergence, 16 g ai/ha, scale 0 (no effect) to 100 (complete control)
# [16] = Preemergence, 31 g ai/ha, scale of 0 to 100, 0 is no effect, 100 is complete control
# [17] = Preemergence, 62 g ai/ha, scale of 0 to 100, 0 is no effect, 100 is complete control
# [18] = Preemergence, 125 g ai/ha, scale 0 to 100, 0 no effect, 100 complete control
# [19] = Postemergence, 62 g ai/ha, scale 0 to 100 (0 no effect, 100 complete control)
# [20] = 16 g ai/ha, scale 0 to 100, 0 no effect, 100 complete control
# [21] = 31 g ai/ha, scale 0 to 100 (0 no effect, 100 complete control)
# [22] = 62 g ai/ha, scale 0 to 100 (0 no effect, 100 complete control)
# [23] = 125 g ai/ha, scale 0 to 100, 0 no effect, 100 complete control
# [24] = Postemergence, 250 g ai/ha, scale 0 to 100
# [25] = Preemergence, 31 g ai/ha, scale 0 (no effect) to 100 (complete control)
# [26] = Preemergence, 250 g ai/ha, scale 0 to 100, 0 no effect, 100 complete control
structure (smiles),measurement,setting,value
FCc1nn(-c2ccc(F)cc2)nc1Oc1ccnc(C(F)(F)F)c1 [Compound 160],"Plant response rating, Foxtail, Giant",[1]; [12],15
same,"Plant response rating, Foxtail, Giant",[1]; [13],20
same,"Plant response rating, Foxtail, Giant",[1]; [14],75
same,"Plant response rating, Foxtail, Giant",[1]; [15],80
same,"Plant response rating, Foxtail, Giant",[1]; [16],100
same,"Plant response rating, Foxtail, Giant",[1]; [17],100
same,"Plant response rating, Foxtail, Giant",[1]; [18],100
same,"Plant response rating, Galium",[2]; [12],55
same,"Plant response rating, Galium",[2]; [13],80
same,"Plant response rating, Galium",[2]; [19],85
same,"Plant response rating, Galium",[2]; [14],95
same,"Plant response rating, Galium",[2]; [16],5
same,"Plant response rating, Galium",[2]; [17],100
same,"Plant response rating, Galium",[2]; [18],100
same,"Plant response rating, Corn",[3]; [12],15
same,"Plant response rating, Corn",[3]; [13],15
same,"Plant response rating, Corn",[3]; [19],20
same,"Plant response rating, Corn",[3]; [14],25
same,"Plant response rating, Corn",[3]; [15],5
same,"Plant response rating, Corn",[3]; [16],5
same,"Plant response rating, Corn",[3]; [17],5
same,"Plant response rating, Corn",[3]; [18],5
same,"Plant response rating, Morningglory",[4]; [12],60
same,"Plant response rating, Morningglory",[4]; [13],60
same,"Plant response rating, Morningglory",[4]; [19],98
same,"Plant response rating, Morningglory",[4]; [14],98
same,"Plant response rating, Morningglory",[4]; [15],0
same,"Plant response rating, Morningglory",[4]; [16],5
same,"Plant response rating, Morningglory",[4]; [17],15
same,"Plant response rating, Morningglory",[4]; [18],20
same,"Plant response rating, Johnsongrass",[5]; [12],10
same,"Plant response rating, Johnsongrass",[5]; [13],15
same,"Plant response rating, Johnsongrass",[5]; [14],30
same,"Plant response rating, Johnsongrass",[5]; [15],85
same,"Plant response rating, Johnsongrass",[5]; [16],100
same,"Plant response rating, Johnsongrass",[5]; [17],100
same,"Plant response rating, Johnsongrass",[5]; [18],100
same,"Plant response rating, Crabgrass, Large",[6]; [12],20
same,"Plant response rating, Crabgrass, Large",[6]; [13],25
same,"Plant response rating, Crabgrass, Large",[6]; [19],35
same,"Plant response rating, Crabgrass, Large",[6]; [14],40
same,"Plant response rating, Crabgrass, Large",[6]; [15],90
same,"Plant response rating, Crabgrass, Large",[6]; [16],100
same,"Plant response rating, Crabgrass, Large",[6]; [17],100
same,"Plant response rating, Crabgrass, Large",[6]; [18],100
same,"Plant response rating, Ryegrass, Italian",[7]; [12],10
same,"Plant response rating, Ryegrass, Italian",[7]; [13],30
same,"Plant response rating, Ryegrass, Italian",[7]; [19],30
same,"Plant response rating, Ryegrass, Italian",[7]; [14],45
same,"Plant response rating, Ryegrass, Italian",[7]; [15],5
same,"Plant response rating, Ryegrass, Italian",[7]; [16],15
same,"Plant response rating, Ryegrass, Italian",[7]; [17],80
same,"Plant response rating, Ryegrass, Italian",[7]; [18],90
same,"Plant response rating, Kochia",[8]; [20],90
same,"Plant response rating, Kochia",[8]; [21],90
same,"Plant response rating, Kochia",[8]; [22],95
same,"Plant response rating, Kochia",[8]; [23],95
same,"Plant response rating, Oat, Wild",[9]; [20],15
same,"Plant response rating, Oat, Wild",[9]; [21],30
same,"Plant response rating, Oat, Wild",[9]; [22],45
same,"Plant response rating, Oat, Wild",[9]; [23],60
same,"Plant response rating, Ducksalad (0 to 100 scale, 0 is no effect, 100 is complete control)",[10]; 250 g ai/ha,90
same,"Plant response rating, Velvetleaf",[11]; [12],20
same,"Plant response rating, Velvetleaf",[11]; [13],30
same,"Plant response rating, Velvetleaf",[11]; [19],50
same,"Plant response rating, Velvetleaf",[11]; [14],75
same,"Plant response rating, Velvetleaf",[11]; [15],0
same,"Plant response rating, Velvetleaf",[11]; [16],5
same,"Plant response rating, Velvetleaf",[11]; [17],30
same,"Plant response rating, Velvetleaf",[11]; [18],30
"CCOc1nn(-c2ccc(C(F)(F)F)cc2)nc1Cc1ccnc(C(F)(F)F)c1 [Compound 164, 4-[[5-ethoxy-2-[4-(trifluoromethyl)phenyl]-2H-1,2,3-triazol-4-yl]methyl]-2-(trifluoromethyl)pyridine]","Plant response rating, Foxtail, Giant",[1]; [13],10
same,"Plant response rating, Foxtail, Giant",[1]; [19],20
same,"Plant response rating, Foxtail, Giant",[1]; [14],20
same,"Plant response rating, Foxtail, Giant",[1]; [24],35
same,"Plant response rating, Foxtail, Giant",[1]; [25],50
same,"Plant response rating, Foxtail, Giant",[1]; [17],65
same,"Plant response rating, Foxtail, Giant",[1]; [18],98
same,"Plant response rating, Foxtail, Giant",[1]; [26],100
same,"Plant response rating, Galium",[2]; [13],30
same,"Plant response rating, Galium",[2]; [19],30
same,"Plant response rating, Galium",[2]; [14],60
same,"Plant response rating, Galium",[2]; [24],60
same,"Plant response rating, Galium",[2]; [25],0
same,"Plant response rating, Galium",[2]; [17],50
same,"Plant response rating, Galium",[2]; [18],80
same,"Plant response rating, Galium",[2]; [26],80
same,"Plant response rating, Corn",[3]; [13],15
same,"Plant response rating, Corn",[3]; [19],15
same,"Plant response rating, Corn",[3]; [14],20
same,"Plant response rating, Corn",[3]; [24],20
same,"Plant response rating, Corn",[3]; [25],0
same,"Plant response rating, Corn",[3]; [17],5
same,"Plant response rating, Corn",[3]; [18],10
same,"Plant response rating, Corn",[3]; [26],10
same,"Plant response rating, Morningglory",[4]; [13],50
same,"Plant response rating, Morningglory",[4]; [19],60
same,"Plant response rating, Morningglory",[4]; [24],75
same,"Plant response rating, Morningglory",[4]; [25],5
same,"Plant response rating, Morningglory",[4]; [17],15
same,"Plant response rating, Morningglory",[4]; [18],25
same,"Plant response rating, Morningglory",[4]; [26],45
same,"Plant response rating, Johnsongrass",[5]; [13],10
same,"Plant response rating, Johnsongrass",[5]; [19],10
same,"Plant response rating, Johnsongrass",[5]; [14],10
same,"Plant response rating, Johnsongrass",[5]; [24],10
same,"Plant response rating, Johnsongrass",[5]; [25],5
same,"Plant response rating, Johnsongrass",[5]; [17],15
same,"Plant response rating, Johnsongrass",[5]; [18],20
same,"Plant response rating, Johnsongrass",[5]; [26],40
same,"Plant response rating, Crabgrass, Large",[6]; [13],5
same,"Plant response rating, Crabgrass, Large",[6]; [19],5
same,"Plant response rating, Crabgrass, Large",[6]; [14],10
same,"Plant response rating, Crabgrass, Large",[6]; [24],10
same,"Plant response rating, Crabgrass, Large",[6]; [25],70
same,"Plant response rating, Crabgrass, Large",[6]; [17],75
same,"Plant response rating, Crabgrass, Large",[6]; [18],98
same,"Plant response rating, Crabgrass, Large",[6]; [26],100
same,"Plant response rating, Ryegrass, Italian",[7]; [13],5
same,"Plant response rating, Ryegrass, Italian",[7]; [19],5
same,"Plant response rating, Ryegrass, Italian",[7]; [14],5
same,"Plant response rating, Ryegrass, Italian",[7]; [24],5
same,"Plant response rating, Ryegrass, Italian",[7]; [25],5
same,"Plant response rating, Ryegrass, Italian",[7]; [17],10
same,"Plant response rating, Ryegrass, Italian",[7]; [18],55
same,"Plant response rating, Ryegrass, Italian",[7]; [26],75
same,"Plant response rating, Kochia",[8]; [21],40
same,"Plant response rating, Kochia",[8]; [22],40
same,"Plant response rating, Kochia",[8]; [23],40
same,"Plant response rating, Kochia","[8]; 250 g ai/ha, scale 0 to 100",90
same,"Plant response rating, Oat, Wild",[9]; [21],5
same,"Plant response rating, Oat, Wild",[9]; [22],5
same,"Plant response rating, Oat, Wild",[9]; [23],5
same,"Plant response rating, Oat, Wild","[9]; 250 g ai/ha, scale 0 to 100",10
same,"Plant response rating, Ducksalad (0 to 100 scale, 0 is no effect, 100 is complete control)",[10]; 125 g ai/ha,0
same,"Plant response rating, Velvetleaf",[11]; [13],25
same,"Plant response rating, Velvetleaf",[11]; [19],30
same,"Plant response rating, Velvetleaf",[11]; [14],40
same,"Plant response rating, Velvetleaf",[11]; [24],40
same,"Plant response rating, Velvetleaf",[11]; [25],10
same,"Plant response rating, Velvetleaf",[11]; [17],10
same,"Plant response rating, Velvetleaf",[11]; [18],30
same,"Plant response rating, Velvetleaf",[11]; [26],70
